Patent US9326993B2, “Treatment of pulmonary and pleural fibrosis using HSP27 inhibitors” (ONCOGENEX TECHNOLOGIES INC., priority 2011, dated 2016)

Legend:
[1] = test system: epithelial A549 cells; test: rTGF-β1-induced EMT in A549 cells; assay type: cell-based, human; settings: siRNA 50 nM, rTGF-β1 10 ng/ml
Method: (§1) Mesothelial rat established cell line 4/4 RM4 cells (American Type Culture Collection—ATCC—Rockville, Md.) were seeded in Ham's F10 (Lonza), with FBS 15%. Mesothelial human established cell line MET-5A (ATCC) were seeded in Medium 199 (lonza), 1% L-glutamine, 1% penicillin-streptomycin with 10% FBS. Epithelial human cell line A549 cells (ATCC) and were seeded in Ham's F10 (lonza) with 10% FBS.
(§2) For EMT induction and analysis, all the different cells were exposed to their respective medium containing 10 ng/ml recombinant (r)TGF-β1 (R&D system, Lille, France) for 6, 12, 24, or 48 hours.
HSP27 siRNA were purchased from applied bios system (Courtaboeuf, France). The sense and antisense sequence were respectively: 5′-GUUCAAAGCAACCACCUGUtt-3 (SEQ ID No: 4)′ and 5′-ACAGGUGGUUGCUUUGAACtt-3′. (SEQ ID No: 5). They were used at a concentration of 50 nM. SiRNA were transfected using INTERFERin (polyplus, Illkirch, France) following the manufacturer recommendations. 5-6 hours after transfection medium were changed and cells were treated or not with 10 ng/ml TGF-β1 for 12, 24 or 48 hours. […]
(§3) Total RNA was extracted using TRIzol (Invitrogen, Cergy Pontoise, France) from MET-5A and A549 cells treated or not with rTGF-β1 12 or 24 hours and transfected or not by HSP27 siRNA or plasmid encoding HSP27. […] Quantitative RT-PCR was performed on the cDNA using the SYBR green master mix (promega, Charbonnieres, France). […]

[2] = test system: human mesothelial Met-5A cells; test: rTGF-β1-induced EMT in Met-5A cells (western blot, RT-PCR); assay type: cell-based; settings: siRNA 50 nM, rTGF-β1 10 ng/ml
Method: as §1, §2
(§4) HSP27 siRNA were purchased from applied bios system (Courtaboeuf, France). The sense and antisense sequence were respectively: 5′-GUUCAAAGCAACCACCUGUtt-3 (SEQ ID No: 4)′ and 5′-ACAGGUGGUUGCUUUGAACtt-3′. (SEQ ID No: 5). They were used at a concentration of 50 nM. SiRNA were transfected using INTERFERin (polyplus, Illkirch, France) following the manufacturer recommendations. 5-6 hours after transfection medium were changed and cells were treated or not with 10 ng/ml TGF-β1 for 12, 24 or 48 hours. Seq ID No. 3 was used as a random control oligonucleotide.
Protein extraction was made using triton X 100 during 30 min at 4° C., vortexing every 10 min. Protein dosage is made with the modified lowry kit (Biorad, Marne-la-Coquette, France). Equal amounts of protein (30-50 μg) were electrophoresed through 8 to 12% SDS polyacrylamide gels. The separate protein bands were transferred onto a PVDF membrane. The non-specific sites were saturated with a solution of PBS-tween 0.1%, nonfat milk 8%. Membranes were incubated with primary Abs over night at 4° C. Secondary Abs IgG linked to HRP (HorseRadish Peroxidase, Jackson ImmunoResearch Laboratories, PA, USA) were used at a concentration of 1/5000. Enhanced ChemiLuminescent substrat (ECL, santa cruz biotechnology, CA, USA) was used to detect the protein of interest. […]
as §3

[3] = test system: mesothelial Met-5A cells; test: Scratch test (migration) on Met-5A cells after rTGF-β1; assay type: cell-based, human; settings: cells treated with rTGF-β1
Method: as §4
Therefore, HSP27 inhibition blocked this all well known features of EMT induced by TGF-β1 in cultured cells. This corresponded to HSP27 expression levels (FIG. 3G).

Q: With “HSP27 siRNA: siRNA, sense 5′-GUUCAAAGCAACCACCUGUtt-3′ (SEQ ID No: 4), antisense 5′-ACAGGUGGUUGCUUUGAACtt-3′ (SEQ ID No: 5) (sense GUUCAAAGCAACCACCUGUTT; antisense ACAGGUGGUUGCUUUGAACTT; chemistry not given here; listed as Homo sapiens)” as the substance, how does the “rTGF-β1 induced α-SMA” value [1] read?
A: The value was “inhibits”.

Q: What about the “rTGF-β1 induced α-SMA” value ([2]; Met-5A cells) of the same substance?
A: Its value is “inhibits”.

Q: And the “rTGF-β1-induced E-cadherin down-regulation” value ([2]; 48 h)?
A: The value was “blocks”.

Q: And the “rTGF-β1-induced α-SMA upregulation” value ([2]; 48 h)?
A: Its value is “blocks”.

Q: And the “migration capacity in scratch test” value [3]?
A: Its value is “much weaker migration”.

Q: What about the “wound recovery by 48 h” value ([3]; 48 h) of the same substance?
A: The value was “still largely unrecovered”.
